Results: ChEMBL document CHEMBL3621040, “Dicarabrol, a new dimeric sesquiterpene from Carpesium abrotanoides L” (Bioorg Med Chem Lett, 2015)
≈ marks a conversion by molar mass, not a printed value.

Assays:
Influenza A virus [1] = experiment: Antiviral activity against Influenza A virus H1N1 infected in MDCK cells assessed as protection against virus-induced cytopathic effect after 48 hrs by crystal violet staining; assay type: functional, organism-based
Influenza A virus [2] = experiment: Antiviral activity against Influenza A virus H3N2 infected in MDCK cells assessed as protection against virus-induced cytopathic effect after 48 hrs by crystal violet staining; assay type: functional, organism-based
DU-145 = experiment: Cytotoxicity against human DU145 cells after 72 hrs by CCK8 assay; assay type: functional, cell-based; details: DU-145, 72 h
HeLa = experiment: Cytotoxicity against human HeLa cells after 72 hrs by CCK8 assay; assay type: functional, cell-based
[3] = test system: Mycobacterium tuberculosis; experiment: Antimycobacterial activity against Mycobacterium tuberculosis H37Ra after 7 days by alamar blue dye assay; assay type: functional; details: 168 h
U-937 = experiment: Cytotoxicity against human U937 cells after 72 hrs by CCK8 assay; assay type: functional, cell-based; details: U-937, 72 h
A549 = experiment: Cytotoxicity against human A549 cells after 72 hrs by CCK8 assay; assay type: functional, cell-based; details: A549, 72 h
K562 = experiment: Cytotoxicity against human K562 cells after 72 hrs by CCK8 assay; assay type: functional, cell-based; details: K562, 72 h
MOLT-4 = experiment: Cytotoxicity against human MOLT4 cells after 72 hrs by CCK8 assay; assay type: functional, cell-based; details: MOLT-4, 72 h
HL-60 = experiment: Cytotoxicity against human HL60 cells after 72 hrs by CCK8 assay; assay type: functional, cell-based; details: HL-60, 72 h
NCI-H1975 = experiment: Cytotoxicity against human NCI-H1975 cells after 72 hrs by CCK8 assay; assay type: functional, cell-based; details: NCI-H1975, 72 h
[4] = Cytotoxicity against human SGC7901 cells after 72 hrs by CCK8 assay; assay type: functional, cell-based; details: SGC-7901, 72 h
MCF7 = experiment: Cytotoxicity against human MCF7 cells after 72 hrs by CCK8 assay; assay type: functional, cell-based; details: MCF7, 72 h

SMILES	IC50 (Influenza A virus [1])	IC50 (Influenza A virus [2])	IC50 (DU-145)	IC50 (HeLa)	MIC [3]	IC50 (U-937)	IC50 (A549)	IC50 (K562)	IC50 (MOLT-4)	IC50 (HL-60)	IC50 (NCI-H1975)	IC50 [4]	IC50 (MCF7)
CCOC(=O)C1=C[C@@H](OC(CC)CC)[C@H](NC(C)=O)[C@@H](N)C1 [OSELTAMIVIR]	25 nM	15 nM											
C=C1C(=O)O[C@H]2C[C@@H](C)[C@@H]3CC[C@H](O)[C@@]3(C)C[C@H]12 [PSEUDOGUAIANOLIDE]	29300 nM	47300 nM	3100 nM	6000 nM	7.6 µM (≈ 1.9 µg/mL)	2200 nM	6200 nM	17000 nM	5500 nM	2400 nM	13000 nM	22000 nM	11000 nM
C=C1C(=O)O[C@H]2C[C@@]3(C)O[C@@H]3CC[C@@]3(C)O[C@@H]3C[C@H]12	10800 nM	11600 nM	380 nM	1000 nM	6 µM (≈ 1.59 µg/mL)	210 nM	2000 nM	1700 nM	1200 nM	180 nM	5400 nM	6400 nM	4100 nM
NNC(=O)c1ccncc1 [ISONIAZID]					2 µM (≈ 0.274 µg/mL)								
C=C1C(=O)O[C@@H]2C[C@]3(C)[C@@H](CCC(C)O)C[C@@]4(C(=O)O[C@@H]5C[C@@H]6[C@@H](CC[C@H](C)O)[C@@H]6C[C@@H]54)[C@@H]3C[C@H]12 (stereo not given in full)	15900 nM	30000 nM	310 nM	610 nM	3.7 µM (≈ 1.8 µg/mL)	150 nM	2700 nM	1200 nM	1300 nM	100 nM	1400 nM	710 nM	3300 nM
CC(=O)O[C@H]1C(=O)[C@@]2(C)[C@H]([C@H](OC(=O)c3ccccc3)[C@]3(O)C[C@H](OC(=O)[C@H](O)[C@@H](NC(=O)c4ccccc4)c4ccccc4)C(C)=C1C3(C)C)[C@]1(OC(C)=O)CO[C@@H]1C[C@@H]2O [PACLITAXEL]			3100 nM			2100 nM	2100 nM	3800 nM	2700 nM	3800 nM	2800 nM	9800 nM	
